From ChEMBL document CHEMBL1275456, “Metallo-beta-lactamase gene bla(IMP-15) in a class 1 integron, In95, from Pseudomonas aeruginosa clinical isolates from a hospital in Mexico” (2008) come the findings set out here.

Values after ≈ are worked out from the molar mass of the structure shown.

Common to all, as to assay type: functional
Experiment [1] relates to Pseudomonas aeruginosa. Kind of experiment: Antimicrobial activity against Pseudomonas aeruginosa urine isolate 4663 expressing beta-lactamase IMP-15 by broth microdilution method. A general note: In broth dilution the organism is exposed to a series of concentrations in liquid medium.
Experiment [2] deals with Pseudomonas aeruginosa. The experiment can be described thus: Antimicrobial activity against Pseudomonas aeruginosa secretion isolate 4658 containing PFGE clone A1 expressing beta-lactamase IMP-15 by broth microdilution method.
Experiment [3] deals with Pseudomonas aeruginosa. The experiment can be described thus: Antimicrobial activity against Pseudomonas aeruginosa urine isolate 4706 containing PFGE clone A expressing beta-lactamase IMP-15 by broth microdilution method.
For experiment [4], the system named is Pseudomonas aeruginosa. Kind of experiment: Antimicrobial activity against Pseudomonas aeruginosa secretion isolate 4688 containing PFGE clone A1 expressing beta-lactamase IMP-15 by broth microdilution method.
Experiment [5] deals with Pseudomonas aeruginosa. Kind of experiment: Antimicrobial activity against Pseudomonas aeruginosa secretion isolate 4703 containing PFGE clone A1 expressing beta-lactamase IMP-15 by broth microdilution method.
For experiment [6], the system named is Pseudomonas aeruginosa. The experiment can be described thus: Antimicrobial activity against Pseudomonas aeruginosa urine isolate 4698 containing PFGE clone A expressing beta-lactamase IMP-15 by broth microdilution method.
The subject of experiment [7] is Pseudomonas aeruginosa. The experiment can be described thus: Antimicrobial activity against Pseudomonas aeruginosa pleural fluid isolate 4679 containing PFGE clone A1 expressing beta-lactamase IMP-15 by broth microdilution method.
For experiment [8], the system named is Pseudomonas aeruginosa. Kind of experiment: Antimicrobial activity against Pseudomonas aeruginosa secretion isolate 4682-1 containing PFGE clone A expressing beta-lactamase IMP-15 by broth microdilution method.
For experiment [9], the system named is Pseudomonas aeruginosa. Kind of experiment: Antimicrobial activity against Pseudomonas aeruginosa blood isolate 4677 containing PFGE clone A expressing beta-lactamase IMP-15 by broth microdilution method.
Experiment [10] has as its system Pseudomonas aeruginosa. Kind of experiment: Antimicrobial activity against Pseudomonas aeruginosa catheter isolate 4680 containing PFGE clone A2 expressing beta-lactamase IMP-15 by broth microdilution method.
Experiment [11] deals with Pseudomonas aeruginosa. The experiment can be described thus: Antimicrobial activity against Pseudomonas aeruginosa clinical isolates assessed as resistant isolates by agar dilution method.
In experiment [12] the test system is Pseudomonas aeruginosa. The experiment can be described thus: Antimicrobial activity against Pseudomonas aeruginosa blood isolate 4667 containing PFGE clone A expressing beta-lactamase IMP-15 by broth microdilution method.
Experiment [13] concerns Pseudomonas aeruginosa. The experiment can be described thus: Antimicrobial activity against Pseudomonas aeruginosa catheter isolate 4696 containing PFGE clone A expressing beta-lactamase IMP-15 by broth microdilution method.
For experiment [14], the system named is Pseudomonas aeruginosa. The experiment can be described thus: Antimicrobial activity against Pseudomonas aeruginosa blood isolate 4659 containing PFGE clone A2 expressing beta-lactamase IMP-15 by broth microdilution method.
Experiment [15] relates to Pseudomonas aeruginosa. Kind of experiment: Antimicrobial activity against Pseudomonas aeruginosa blood isolate 4677 containing PFGE clone A expressing beta-lactamase IMP-15 by broth microdilution method in presence of beta-lactamase inhibitor Tazobactam.
Experiment [16] relates to Pseudomonas aeruginosa. The experiment can be described thus: Antimicrobial activity against Pseudomonas aeruginosa pleural fluid isolate 4679 containing PFGE clone A1 expressing beta-lactamase IMP-15 by broth microdilution method in presence of beta-lactamase inhibitor Tazobactam. The note with it: isolate 4679, Pleural fluid.
Experiment [17] has as its system Pseudomonas aeruginosa. Kind of experiment: Antimicrobial activity against Pseudomonas aeruginosa secretion isolate 4703 containing PFGE clone A1 expressing beta-lactamase IMP-15 by broth microdilution method in presence of beta-lactamase inhibitor Tazobactam.
For experiment [18], the system named is Pseudomonas aeruginosa. Kind of experiment: Antimicrobial activity against Pseudomonas aeruginosa blood isolate 4667 containing PFGE clone A expressing beta-lactamase IMP-15 by broth microdilution method in presence of beta-lactamase inhibitor Tazobactam.
Experiment [19] has as its system Pseudomonas aeruginosa. The experiment can be described thus: Antimicrobial activity against Pseudomonas aeruginosa clinical isolates assessed as resistant isolates by agar dilution method in presence of beta-lactamase inhibitor Tazobactam. A general note: Agar dilution tests growth on a series of plates holding different concentrations.
Experiment [20] deals with Pseudomonas aeruginosa. Kind of experiment: Antimicrobial activity against Pseudomonas aeruginosa catheter isolate 4680 containing PFGE clone A2 expressing beta-lactamase IMP-15 by broth microdilution method in presence of beta-lactamase inhibitor Tazobactam.
The subject of experiment [21] is Pseudomonas aeruginosa. Kind of experiment: Antimicrobial activity against Pseudomonas aeruginosa secretion isolate 4658 containing PFGE clone A1 expressing beta-lactamase IMP-15 by broth microdilution method in presence of beta-lactamase inhibitor Tazobactam.
Experiment [22] deals with Pseudomonas aeruginosa. The experiment can be described thus: Antimicrobial activity against Pseudomonas aeruginosa catheter isolate 4696 containing PFGE clone A expressing beta-lactamase IMP-15 by broth microdilution method in presence of beta-lactamase inhibitor Tazobactam.
The test system of experiment [23] is Pseudomonas aeruginosa. Kind of experiment: Antimicrobial activity against Pseudomonas aeruginosa blood isolate 4659 containing PFGE clone A2 expressing beta-lactamase IMP-15 by broth microdilution method in presence of beta-lactamase inhibitor Tazobactam.
Experiment [24] relates to Pseudomonas aeruginosa. Kind of experiment: Antimicrobial activity against Pseudomonas aeruginosa urine isolate 4706 containing PFGE clone A expressing beta-lactamase IMP-15 by broth microdilution method in presence of beta-lactamase inhibitor Tazobactam. The note with it: isolate 4706, Urine.
Experiment [25] concerns Pseudomonas aeruginosa. Kind of experiment: Antimicrobial activity against Pseudomonas aeruginosa urine isolate 4698 containing PFGE clone A expressing beta-lactamase IMP-15 by broth microdilution method in presence of beta-lactamase inhibitor Tazobactam. As to conditions: isolate 4698, Urine.
For experiment [26], the system named is Pseudomonas aeruginosa. Kind of experiment: Antimicrobial activity against Pseudomonas aeruginosa secretion isolate 4682-1 containing PFGE clone A expressing beta-lactamase IMP-15 by broth microdilution method in presence of beta-lactamase inhibitor Tazobactam.
Experiment [27] relates to Pseudomonas aeruginosa. Kind of experiment: Antimicrobial activity against Pseudomonas aeruginosa secretion isolate 4688 containing PFGE clone A1 expressing beta-lactamase IMP-15 by broth microdilution method in presence of beta-lactamase inhibitor Tazobactam.
In experiment [28] the test system is Pseudomonas aeruginosa. The experiment can be described thus: Antimicrobial activity against Pseudomonas aeruginosa urine isolate 4663 expressing beta-lactamase IMP-15 by broth microdilution method in presence of beta-lactamase inhibitor Tazobactam. The note with it: isolate 4663, Urine.

With `C[C@H]1[C@H](NC(=O)/C(=N\OC(C)(C)C(=O)O)c2csc(N)n2)C(=O)N1S(=O)(=O)O` [AZTREONAM], 8 µg/mL (≈ 18.4 µM) was the least that counted as inhibitory in the experiment on Pseudomonas aeruginosa [1] (isolate 4663, Urine) (MIC).
As to `C[C@@H](O)[C@H]1C(=O)N2C(C(=O)O)=C(SCCNC=N)C[C@H]12` [IMIPENEM ANHYDROUS], the MIC (in general, the smallest concentration in the dilution series that meets the test's criterion for growth inhibition) was 128 µg/mL (≈ 428 µM) in the experiment with Pseudomonas aeruginosa [2]; 32 µg/mL (≈ 107 µM) against Pseudomonas aeruginosa [3] (isolate 4706, Urine); > 128 µg/mL in the experiment on Pseudomonas aeruginosa [4]; 32 µg/mL (≈ 107 µM) against Pseudomonas aeruginosa [1] (isolate 4663, Urine); > 128 µg/mL against Pseudomonas aeruginosa [5]; > 128 µg/mL against Pseudomonas aeruginosa [6] (isolate 4698, Urine). Besides, the MIC against Pseudomonas aeruginosa [7] is 128 µg/mL (≈ 428 µM); in the experiment with Pseudomonas aeruginosa [8], 128 µg/mL (≈ 428 µM); against Pseudomonas aeruginosa [9], > 128 µg/mL; in the experiment with Pseudomonas aeruginosa [10], 128 µg/mL (≈ 428 µM); against Pseudomonas aeruginosa [12] it was > 128 µg/mL; against Pseudomonas aeruginosa [13], 128 µg/mL (≈ 428 µM). Besides, the MIC against Pseudomonas aeruginosa [14] was > 128 µg/mL. In the experiment with Pseudomonas aeruginosa [11], the Activity is 100%.
As to GENTAMICIN, the MIC was 128 µg/mL against Pseudomonas aeruginosa [2]; > 128 µg/mL with Pseudomonas aeruginosa [3]; > 128 µg/mL against Pseudomonas aeruginosa [4]; 128 µg/mL against Pseudomonas aeruginosa [1]; > 128 µg/mL in the experiment on Pseudomonas aeruginosa [5]; > 128 µg/mL with Pseudomonas aeruginosa [6]. In addition, the MIC was 128 µg/mL against Pseudomonas aeruginosa [7]; > 128 µg/mL in the experiment with Pseudomonas aeruginosa [8]; > 128 µg/mL in the experiment on Pseudomonas aeruginosa [9]; 128 µg/mL in the experiment on Pseudomonas aeruginosa [10]; 128 µg/mL against Pseudomonas aeruginosa [12]; > 128 µg/mL against Pseudomonas aeruginosa [13]. In the experiment on Pseudomonas aeruginosa [14], the MIC was > 128 µg/mL. In addition, the Activity in the experiment on Pseudomonas aeruginosa [11] was determined as 54%.
On to `CC(C)(O/N=C(\C(=O)N[C@@H]1C(=O)N2C(C(=O)[O-])=C(C[n+]3ccccc3)CS[C@H]12)c1csc(N)n1)C(=O)O` [CEFTAZIDIME], for which the MIC in the experiment with Pseudomonas aeruginosa [2] was > 128 µg/mL; in the experiment on Pseudomonas aeruginosa [3] (isolate 4706, Urine) it was > 128 µg/mL; against Pseudomonas aeruginosa [4] it was > 128 µg/mL; in the experiment on Pseudomonas aeruginosa [1] (isolate 4663, Urine) it was > 128 µg/mL; against Pseudomonas aeruginosa [5] it was > 128 µg/mL; against Pseudomonas aeruginosa [6] (isolate 4698, Urine) it was > 128 µg/mL. Further, the MIC against Pseudomonas aeruginosa [7], against Pseudomonas aeruginosa [8], against Pseudomonas aeruginosa [9], with Pseudomonas aeruginosa [10], against Pseudomonas aeruginosa [12] and against Pseudomonas aeruginosa [13] was > 128 µg/mL in each case. Besides, the MIC against Pseudomonas aeruginosa [14] was > 128 µg/mL. For the same molecule, the Activity with Pseudomonas aeruginosa [11] was found to be 61%.
As to `NCC[C@H](O)C(=O)N[C@@H]1C[C@H](N)[C@@H](O[C@H]2O[C@H](CN)[C@@H](O)[C@H](O)[C@H]2O)[C@H](O)[C@H]1O[C@H]1O[C@H](CO)[C@@H](O)[C@H](N)[C@H]1O` [AMIKACIN], the MIC in the experiment on Pseudomonas aeruginosa [2] was > 128 µg/mL; with Pseudomonas aeruginosa [3] (isolate 4706, Urine), 64 µg/mL (≈ 109 µM); in the experiment with Pseudomonas aeruginosa [4] it was > 128 µg/mL; in the experiment on Pseudomonas aeruginosa [1] (isolate 4663, Urine), 4 µg/mL (≈ 6.83 µM); with Pseudomonas aeruginosa [5] it was 128 µg/mL (≈ 219 µM); against Pseudomonas aeruginosa [6] (isolate 4698, Urine), > 128 µg/mL. In addition, the MIC against Pseudomonas aeruginosa [7], against Pseudomonas aeruginosa [8], against Pseudomonas aeruginosa [9], in the experiment on Pseudomonas aeruginosa [10], against Pseudomonas aeruginosa [12] and with Pseudomonas aeruginosa [13] was > 128 µg/mL in each case. Further, the MIC in the experiment on Pseudomonas aeruginosa [14] is > 128 µg/mL. Further, the Activity in the experiment with Pseudomonas aeruginosa [11] stood at 51%.
With `C[C@@H](O)[C@H]1C(=O)N2C(C(=O)O)=C(S[C@@H]3CN[C@H](C(=O)N(C)C)C3)[C@H](C)[C@H]12` [MEROPENEM], the MIC with Pseudomonas aeruginosa [2] was 128 µg/mL (≈ 334 µM); with Pseudomonas aeruginosa [3] (isolate 4706, Urine), 128 µg/mL (≈ 334 µM); with Pseudomonas aeruginosa [4], 128 µg/mL (≈ 334 µM); against Pseudomonas aeruginosa [1] (isolate 4663, Urine) it was > 128 µg/mL; in the experiment on Pseudomonas aeruginosa [5] it was 128 µg/mL (≈ 334 µM); against Pseudomonas aeruginosa [6] (isolate 4698, Urine) it was 128 µg/mL (≈ 334 µM). Further, the MIC against Pseudomonas aeruginosa [7], in the experiment with Pseudomonas aeruginosa [8], against Pseudomonas aeruginosa [9], against Pseudomonas aeruginosa [10], with Pseudomonas aeruginosa [12] and in the experiment on Pseudomonas aeruginosa [13] was 128 µg/mL (≈ 334 µM) each time. The molecule also displayed an MIC in the experiment with Pseudomonas aeruginosa [14] of 128 µg/mL (≈ 334 µM). Also, the Activity in the experiment with Pseudomonas aeruginosa [11] came to 87%.
Take `CCN1CCN(C(=O)N[C@@H](C(=O)N[C@@H]2C(=O)N3[C@@H]2SC(C)(C)[C@@H]3C(=O)O)c2ccccc2)C(=O)C1=O` [PIPERACILLIN]: the MIC with Pseudomonas aeruginosa [2] turned out to be 64 µg/mL (≈ 124 µM); in the experiment on Pseudomonas aeruginosa [15] it was 64 µg/mL; with Pseudomonas aeruginosa [3] (isolate 4706, Urine) it was 64 µg/mL (≈ 124 µM); in the experiment on Pseudomonas aeruginosa [16], 64 µg/mL; with Pseudomonas aeruginosa [17], 64 µg/mL; with Pseudomonas aeruginosa [4] it was 64 µg/mL (≈ 124 µM). Further, the MIC with Pseudomonas aeruginosa [1] (isolate 4663, Urine) amounted to 64 µg/mL (≈ 124 µM); against Pseudomonas aeruginosa [5], 64 µg/mL (≈ 124 µM); in the experiment on Pseudomonas aeruginosa [18] it was 64 µg/mL; in the experiment on Pseudomonas aeruginosa [6] (isolate 4698, Urine) it was 64 µg/mL (≈ 124 µM); in the experiment on Pseudomonas aeruginosa [20], 64 µg/mL; in the experiment with Pseudomonas aeruginosa [21] it was 64 µg/mL. Besides, the MIC amounted to 64 µg/mL with Pseudomonas aeruginosa [22]; 64 µg/mL with Pseudomonas aeruginosa [23]; 64 µg/mL (≈ 124 µM) in the experiment with Pseudomonas aeruginosa [7]; 64 µg/mL (≈ 124 µM) against Pseudomonas aeruginosa [8]; 64 µg/mL in the experiment with Pseudomonas aeruginosa [24]; 64 µg/mL in the experiment on Pseudomonas aeruginosa [25]. In addition, the MIC in the experiment with Pseudomonas aeruginosa [26] stood at 64 µg/mL; against Pseudomonas aeruginosa [9] it was 64 µg/mL (≈ 124 µM); against Pseudomonas aeruginosa [10], 64 µg/mL (≈ 124 µM); with Pseudomonas aeruginosa [27], 64 µg/mL; in the experiment on Pseudomonas aeruginosa [12], 64 µg/mL (≈ 124 µM); in the experiment with Pseudomonas aeruginosa [28], 64 µg/mL. For the same molecule, the MIC against Pseudomonas aeruginosa [13] and in the experiment on Pseudomonas aeruginosa [14] was 64 µg/mL (≈ 124 µM) throughout. Also, the results for the Activity in the experiment with Pseudomonas aeruginosa [19] and in the experiment with Pseudomonas aeruginosa [11] were 14% and 19%, respectively.
